Reference: US11292801B2, “Calpain modulators and therapeutic uses thereof” (Blade Therapeutics, Inc., priority 2016, dated 2022)

Key:
[1] = biological target: T1, Human Calpain 9/NS1 (Homo sapiens, UniProt O14815); test: Biochemical inhibition of calpain 9, continuous fluorescence (FRET substrate) assay; details: mean, read-out: Human Calpain 9/NS1 IC50 (nM)_MEAN
T1 sequence (O14815 1-690): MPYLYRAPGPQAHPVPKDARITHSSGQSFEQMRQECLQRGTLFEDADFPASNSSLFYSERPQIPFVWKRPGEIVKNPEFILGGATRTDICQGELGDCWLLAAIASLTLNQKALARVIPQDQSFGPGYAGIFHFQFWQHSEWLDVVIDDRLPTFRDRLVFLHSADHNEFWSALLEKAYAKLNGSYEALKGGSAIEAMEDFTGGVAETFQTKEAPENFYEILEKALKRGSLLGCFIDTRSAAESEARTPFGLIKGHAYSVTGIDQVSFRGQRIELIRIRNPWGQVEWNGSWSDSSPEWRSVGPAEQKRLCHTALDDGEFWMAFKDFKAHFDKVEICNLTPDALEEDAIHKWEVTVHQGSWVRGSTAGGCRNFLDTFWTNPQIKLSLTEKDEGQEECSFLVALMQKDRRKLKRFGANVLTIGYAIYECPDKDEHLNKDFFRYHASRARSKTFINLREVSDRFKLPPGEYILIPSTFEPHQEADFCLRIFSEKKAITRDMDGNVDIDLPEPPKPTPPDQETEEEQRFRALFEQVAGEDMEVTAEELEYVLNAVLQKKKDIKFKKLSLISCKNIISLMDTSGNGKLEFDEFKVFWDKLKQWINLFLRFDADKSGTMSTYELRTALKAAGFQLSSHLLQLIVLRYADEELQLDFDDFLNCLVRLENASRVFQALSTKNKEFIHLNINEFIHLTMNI
T1 sequence (P04632 1-268 partner): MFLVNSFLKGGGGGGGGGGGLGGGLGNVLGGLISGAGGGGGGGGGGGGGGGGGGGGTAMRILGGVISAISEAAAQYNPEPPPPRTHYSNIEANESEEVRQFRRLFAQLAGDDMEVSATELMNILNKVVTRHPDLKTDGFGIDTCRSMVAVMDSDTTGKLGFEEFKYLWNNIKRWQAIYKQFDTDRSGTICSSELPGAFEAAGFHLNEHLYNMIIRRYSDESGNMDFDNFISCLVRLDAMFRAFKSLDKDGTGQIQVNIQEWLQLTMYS
Procedure: (§1) Calpain 1, 2, and 9 activity and inhibition thereof are assessed by means of a continuous fluorescence assay. The SensoLyte 520 Calpain substrate (Anaspec Inc) is optimized for detecting calpain activity. This substrate contains a novel internally quenched 5-FAM/QXL™ 520 FRET pair. Calpains 1, 2, and 9 cleave the FRET substrate into two separate fragments resulting in an increase of 5-FAM fluorescence that is proportional to calpain activity.
(§2) Assays are typically setup in black 384-well plates using automated liquid handling as follows. Calpain assay base buffer typically contains 50 mM Tris, pH˜7.5, 100 mM NaCl and 1 mM DTT. Inhibitors are serially diluted in DMSO and used to setup 2× mixtures with calpains in the aforementioned buffer. After incubation at ambient temperature (25C), the reaction is initiated by adding a 2× mix of the fluorescent peptide substrate and CaCl2) (required for in-situ calpain activation) in the same buffer. Reaction progress curve data are typically collected for 10 min using excitation/emission wavelengths of 490 nm/520 nm on SpectraMax i3× or the FLIPR-Tetra plate readers (Molecular Devices Inc). Reaction rates were calculated from progress curve slopes typically over 1-5 min. Dose response curves (rate vs. log inhibitor concentration) were typically fit to a 4-parameter logistic function to extract IC50 values.

[2] = biological target: T2, Human Calpain 2/NS1 (Homo sapiens, UniProt P17655); test: Biochemical inhibition of calpain 2, continuous fluorescence (FRET substrate) assay; details: mean, read-out: Human Calpain 2/NS1 IC50 (nM)_MEAN
T2 sequence (P17655 1-700): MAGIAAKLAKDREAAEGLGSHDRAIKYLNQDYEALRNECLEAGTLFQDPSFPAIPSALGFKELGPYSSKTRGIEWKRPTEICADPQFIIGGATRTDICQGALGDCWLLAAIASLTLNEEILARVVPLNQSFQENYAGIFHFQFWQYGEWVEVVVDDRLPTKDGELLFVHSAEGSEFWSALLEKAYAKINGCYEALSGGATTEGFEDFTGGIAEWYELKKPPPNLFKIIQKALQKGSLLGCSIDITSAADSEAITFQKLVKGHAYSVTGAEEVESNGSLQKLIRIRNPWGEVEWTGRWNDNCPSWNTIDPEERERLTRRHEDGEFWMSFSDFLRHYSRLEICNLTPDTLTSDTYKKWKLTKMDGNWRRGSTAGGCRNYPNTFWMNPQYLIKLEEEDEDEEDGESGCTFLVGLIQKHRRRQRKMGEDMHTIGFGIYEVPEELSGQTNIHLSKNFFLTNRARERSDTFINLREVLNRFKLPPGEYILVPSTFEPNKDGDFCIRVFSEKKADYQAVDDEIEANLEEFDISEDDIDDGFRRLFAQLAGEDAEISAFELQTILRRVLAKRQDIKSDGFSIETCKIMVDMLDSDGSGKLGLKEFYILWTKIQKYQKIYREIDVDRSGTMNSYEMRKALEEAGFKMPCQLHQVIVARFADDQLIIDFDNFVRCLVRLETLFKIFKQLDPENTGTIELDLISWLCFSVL
T2 sequence (P04632 1-268 partner): T1 sequence (P04632 1-268 partner)
Procedure: as §1, §2

[3] = biological target: T3, Human Calpain 1/NS1 (Homo sapiens, UniProt P07384); test: Biochemical inhibition of calpain 1, continuous fluorescence (FRET substrate) assay; details: mean, read-out: Human Calpain 1/NS1 IC50 (nM)_MEAN
T3 sequence (P07384 1-714): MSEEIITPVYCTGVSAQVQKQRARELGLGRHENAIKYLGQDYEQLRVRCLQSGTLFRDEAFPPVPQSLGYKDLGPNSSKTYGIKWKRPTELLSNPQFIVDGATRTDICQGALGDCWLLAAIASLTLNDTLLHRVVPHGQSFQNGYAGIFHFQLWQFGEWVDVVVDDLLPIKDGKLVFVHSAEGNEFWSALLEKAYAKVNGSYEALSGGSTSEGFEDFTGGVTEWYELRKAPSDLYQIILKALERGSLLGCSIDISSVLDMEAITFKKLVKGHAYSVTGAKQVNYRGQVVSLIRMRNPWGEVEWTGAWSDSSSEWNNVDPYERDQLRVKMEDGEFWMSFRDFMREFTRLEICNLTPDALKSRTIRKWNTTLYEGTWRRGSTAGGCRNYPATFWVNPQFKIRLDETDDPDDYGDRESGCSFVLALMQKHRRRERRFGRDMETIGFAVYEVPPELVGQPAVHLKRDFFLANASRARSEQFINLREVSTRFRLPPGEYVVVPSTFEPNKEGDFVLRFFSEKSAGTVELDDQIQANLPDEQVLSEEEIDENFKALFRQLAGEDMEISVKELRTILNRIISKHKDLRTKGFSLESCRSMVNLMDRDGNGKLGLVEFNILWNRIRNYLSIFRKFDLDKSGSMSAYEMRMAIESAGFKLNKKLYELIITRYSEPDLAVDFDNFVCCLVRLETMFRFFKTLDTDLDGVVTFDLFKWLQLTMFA
T3 sequence (P04632 1-268 partner): T1 sequence (P04632 1-268 partner)
Procedure: as §1, §2

IC50 [1] [nM] | IC50 [2] [nM] | IC50 [3] [nM] | SMILES
< 3000 | 3000 to 10000 | > 10000 | O=C[C@@H]1CC=CCCCCOc2ccccc2C(=O)N1 (mixture of isomers) [Compound 5, (S)-11-Oxo-2,3,4,5,8,9,10,11-octahydrobenzo[b][1]oxa[5]azacyclotridecine-9-carbaldehyde]
< 3000 | < 3000 | > 10000 | O=C[C@@H]1C/C=C\COCCOCc2ccccc2C(=O)N1 [Compound 1, (S,Z)-12-Oxo-1,3,4,6,9,10,11,12-octahydrobenzo[f][1,4]dioxa[9]azacyclo-tetradecine-10-carbaldehyde]
3000 to 10000 | > 10000 | > 10000 | O=C[C@@H]1C/C=C/COCCOCc2ccccc2C(=O)N1 [Compound 2, (S,E)-12-Oxo-1,3,4,6,9,10,11,12-octahydrobenzo[f][1,4]dioxa[9]azacyclotetradecine-10-carbaldehyde]
< 3000 | > 10000 | > 10000 | O=C(NCc1ccccc1)C(=O)[C@@H]1C/C=C\COCCOCc2ccccc2C(=O)N1 [Compound 3, (S,Z)—N-benzyl-2-oxo-2-(12-oxo-1,3,4,6,9,10,11,12-octahydrobenzo[f][1,4]dioxa[9]azacyclotetradecin-10-yl)acetamide]
< 3000 | 3000 to 10000 | > 10000 | O=C(NCc1ccccc1)C(=O)[C@@H]1C/C=C/COCCOCc2ccccc2C(=O)N1 [Compound 4, (S,E)-N-benzyl-2-oxo-2-(12-oxo-1,3,4,6,9,10,11,12-octahydrobenzo[f][1,4]dioxa[9]azacyclotetradecin-10-yl)acetamide]
< 3000 | < 3000 | 3000 to 10000 | O=C[C@@H]1CCCCCCCOc2ccccc2C(=O)N1 [Compound 6, (S)-11-Oxo-2,3,4,5,6,7,8,9,10,11-decahydrobenzo[b][1]oxa[5]azacyclotridecine-9-carbaldehyde]
3000 to 10000 | > 10000 | > 10000 | O=C(NCc1ccccc1)C(=O)[C@@H]1CC=CCCCCOc2ccccc2C(=O)N1 [Compound 7, (S)—N-benzyl-2-oxo-2-(11-oxo-2,3,4,5,8,9,10,11-octahydrobenzo[b][1]oxa[5]azacyclotridecin-9-yl)acetamide]
< 3000 | < 3000 | 3000 to 10000 | O=C[C@@H]1CCCCOCCn2ccc3cccc(c32)C(=O)N1 [Compound 8, (S)-11-Oxo-2,3,4,5,8,9,10,11-octahydrobenzo[b][1]oxa[5]azacyclotridecine-9-carbaldehyde]
< 3000 | < 3000 | > 10000 | O=C[C@@H]1CC=CCOCCn2ccc3cccc(c32)C(=O)N1 [Compound 9]
< 3000 | < 3000 | 3000 to 10000 | O=C[C@@H]1C/C=C/CCCCCCc2ccccc2C(=O)N1 [Compound 10, (S,E)-1-Oxo-1,2,3,4,7,8,9,10,11,12-decahydrobenzo[c][1]aza-cyclotetradecine-3-carbaldehyde]
< 3000 | < 3000 | 3000 to 10000 | O=C[C@@H]1CC=CCOCCCOCc2ccccc2C(=O)N1 [Compound 11, (S)-13-Oxo-1,4,5,7,10,11,12,13-octahydro-3h-benzo[g][1,5]dioxa[10]aza-cyclopentadecine-11-carbaldehyde]
3000 to 10000 | < 3000 | < 3000 | O=C[C@@H]1CC=CCOCCCCOCc2ccccc2C(=O)N1 [Compound 12, (S)-14-Oxo-1,3,4,5,6,8,11,12,13,14-decahydrobenzo[h][1,6]dioxa[11]aza-cyclohexadecine-12-carbaldehyde]
3000 to 10000 | < 3000 | 3000 to 10000 | O=C[C@@H]1Cc2ccccc2C=CCCCCOc2ccccc2C(=O)N1 [Compound 13, (S)-19-Oxo-6,7,8,9,16,17,18,19-octahydrodibenzo[b,h][1]oxa[5]aza-cyclopentadecine-17-carbaldehyde]
< 3000 | < 3000 | 3000 to 10000 | O=C[C@@H]1CC=CCCCCCc2ccccc2C(=O)N1 [Compound 14, (S)-1-Oxo-2,3,4,7,8,9,10,11-octahydro-1h-benzo[c][1]aza-cyclotridecine-3-carbaldehyde]
< 3000 | < 3000 | 3000 to 10000 | O=C[C@@H]1CCCCCCCCc2ccccc2C(=O)N1 [Compound 15, (S)-1-Oxo-2,3,4,5,6,7,8,9,10,11-decahydro-1h-benzo[c][1]aza-cyclotridecine-3-carbaldehyde]
< 3000 | < 3000 | 3000 to 10000 | O=C[C@@H]1CCCCCCCCCc2ccccc2C(=O)N1 [Compound 16, (S)-1-Oxo-1,2,3,4,5,6,7,8,9,10,11,12-dodecahydrobenzo[c][1]aza-cyclotetradecine-3-carbaldehyde]
> 10000 | > 10000 | > 10000 | CCNC(=O)C(=O)[C@@H]1C/C=C/CCCCCCc2ccccc2C(=O)N1 [Compound 17, (S,E)-N-ethyl-2-oxo-2-(1-oxo-1,2,3,4,7,8,9,10,11,12-decahydrobenzo[c][1]azacyclotetradecin-3-yl)acetamide]
– | > 10000 | > 10000 | O=C(NC1CCCC1)C(=O)C1CCCCOCCOCc2ccccc2C(=O)N1 (centres unmarked) [Compound 109, N-cyclopentyl-2-oxo-2-(12-oxo-1,3,4,6,7,8,9,10,11,12-decahydrobenzo[f][1,4]dioxa[9]azacyclotetradecin-10-yl)acetamide]
